Experimental data from patent EP4696306A1, “ADENOSINE TRIPHOSPHATE SECRETION INHIBITOR, HEPATIC STELLATE CELL ACTIVATION INHIBITOR, HEPATIC STELLATE CELL DEACTIVATOR, HEPATIC FIBROSIS THERAPEUTIC AGENT, NON-ALCOHOLIC STEATOHEPATITIS THERAPEUTIC AGENT, PSORIASIS THERAPEUTIC AGENT, AND USE OF COMPOUND FOR PRODUCING ADENOSINE TRIPHOSPHATE …” (KURUME UNIVERSITY, priority 2023, dated 2024).

Key:
V-ATPase [1] = target: T1, V-ATPase (Bos taurus, UniProt P31404); test: ATP-dependent proton transport by V-ATPase (acridine orange / oxonol-V fluorescence quenching); type: biochemical, bovine
T1 construct: from tissue; host or cells: bovine adrenal medulla chromaffin granule membranes
Protocol: Chromaffin granule membranes were prepared from adrenal glands collected from slaughtered cattle according to Reference A (Nathan Nelson et al., 1988, Chromaffin Granule Proton Pump, Methods in Enzymology, 157, 619-633). Chromaffin granule membranes prepared by sucrose density gradient centrifugation were suspended in 2 ml of SME buffer (20 mM MOPS-tris (pH 7.0), 0.3 M sucrose, 5 mM EDTA, 10 µg/ml leupeptin, and 10 µg/ml pepstatin) + 25% glycerol, and the resulting suspension was aliquoted and stored at -80°C. Under these conditions, the ATP transport activity, the V-ATPase activity, and the catecholamine transport activity remain fully active for at least one year.
ATP-dependent proton transport by V-ATPase was measured according to Reference B. Proton transport activity was measured using a spectrofluorometer at excitation wavelength of 492 nm and a fluorescence wavelength 540 nm, wherein fluorescence quenching of acridine orange was used as an index (N = 2). The transmembrane potential generated was measured using a spectrofluorometer at an excitation wavelength of 580 nm and a fluorescence wavelength of 630 nm, wherein fluorescence quenching of oxonol-V was used as an index (N = 2). The acridine measurement liquid (2 ml) contained 20 mM MOPS-tris (pH 7.0), 0.2 M sucrose, 0.1 M potassium chloride, 5 mM magnesium acetate, 0.2 µg valinomycin, 2 µM acridine orange, and about 20 µg of chromaffin granules. The oxonol-V measurement liquid (2 ml) contained 20 mM MOPS-tris (pH 7.0), 0.3 M sucrose, 5 mM magnesium acetate, 5 µM oxonol-V, and about 20 µg of chromaffin granules.
Chromaffin granule membrane vesicles were prepared in the same manner as in Example 5, and uptake of radiolabeled ATP into the vesicles was measured. Transport activity of catecholamine (dopamine) and ATP-dependent proton transport by V-ATPase were also measured in the same manner as in Example 5.

[2] = tested on: Thioacetamide-induced hepatic fibrosis; test: Thioacetamide-induced hepatic fibrosis in mice; type: in vivo
Protocol: Wild-type mice, […] (manufactured by Charles River Japan), were housed on a 12-hour light/dark cycle and fed a standard solid diet (5.4% fat, CRF-1, manufactured by Oriental Yeast Co., Ltd.) ad libitum. Thioacetamide (TAA, manufactured by FUJIFILM Wako Pure Chemical Corporation) was dissolved in physiological saline at 0.9% w/v. Eight-week-old mice were randomly assigned to three groups and continuously treated for 9 weeks according to the following scheme. At Week 9, all mice were euthanized 1 hour after administration of physiological saline or IMG.
Normal control group (N = 6): Physiological saline was intraperitoneally administered to mice three times per week. Eight hours after each administration, a vehicle was orally administered to the mice.
TAA group (N = 6): TAA(50 mg/kg, intraperitoneal) was administered to mice. Eight hours thereafter, physiological saline was orally administered to the mice. This treatment was performed three times per week for a total of 9 weeks.
TAA + IMG group (N = 6): During the first week, physiological saline was orally administered to mice. Thereafter, imeglimin (IMG) at 200 mg/kg was orally administered three times per week for 8 weeks. The administration of IMG was performed 8 hours after intraperitoneal administration of TAA (50 mg/kg).
For immunohistochemical analysis, liver samples were fixed in 4% paraformaldehyde, embedded in paraffin, and then sectioned. The sections were stained with HE or PSR. In addition, the paraffin-embedded sections were subjected to immunostaining using an α-SMA monoclonal antibody (1:500, catalog No. A5228, manufactured by Sigma-Aldrich) and an F4/80 monoclonal antibody (1:200, catalog No. MCA497GA, manufactured by AbD Serotec). The cell specimens were observed using a microscope (BZ-X700 series, manufactured by Keyence) or a confocal laser microscope (FV1000, manufactured by Olympus Corporation). The number of F4/80-positive cells was counted in four high-power fields per section. The α-SMA-positive area and the PSR-positive area were quantified using the image analysis software Fiji-ImageJ (1.54f).
A histological score was determined by a blinded investigator using the NAFLD histological scoring system of the Nonalcoholic Steatohepatitis Clinical Research Network. The total NAFLD activity score (NAS) was calculated from the total of the individual scores for steatosis ([…]), lobular inflammation (F4/80), and hepatocyte ballooning. The range of each parameter was 0 to 2 (ballooning) or 3 (the other two scores), where 0 indicates normal and 2 or 3 indicates severe. Staging of fibrosis was based on the NASH fibrosis stages, and a fibrosis stage ranging from 0 to 4 was determined according to Reference H (David E. Kleiner et al., 2005, Design and validation of a histological scoring system for nonalcoholic fatty liver disease, Hepatology, 41, 1313-1321).
All results are expressed as the mean ± standard error of the mean (S.E.M.). Statistical analyses were performed using GraphPad Prism 7.0 (GraphPad Software). Significance upon comparison between two groups was evaluated by an unpaired two-tailed Student's t-test. An unpaired two-tailed Student's t-test was used. Statistical significance among three or more groups was determined by two-way analysis of variance (ANOVA) with Tukey's or Dunnett's post hoc test. Coloc2 was used to perform image analysis, automatic thresholding, and pixel intensity correlation for statistical processing. Statistical significance was assumed when the P value was < 0.05.
In accordance with Example 15, immunostaining of α-SMA in liver sections and observation by fluorescence microscopy were performed for the normal control group, the TAA group, and the TAA + IMG group, and for a TAA + Clo group, which was treated in the same manner as the TAA + IMG group except that clodronate, instead of imeglimin, was administered at 30 mg/kg by blending it in the drinking water from 1 week after the start of TAA administration. […]

V-ATPase [3] = target: V-ATPase (Homo sapiens, UniProt P38606); test: Inhibitory effect on V-ATPase (data not shown); type: biochemical
[4] = 1 g of imeglimin hydrochloride daily for one week; cited from earlier work
[5] = imeglimin 200 mg/kg orally three times per week for 8 weeks

T1 sequence (P31404 whole entry, looked up): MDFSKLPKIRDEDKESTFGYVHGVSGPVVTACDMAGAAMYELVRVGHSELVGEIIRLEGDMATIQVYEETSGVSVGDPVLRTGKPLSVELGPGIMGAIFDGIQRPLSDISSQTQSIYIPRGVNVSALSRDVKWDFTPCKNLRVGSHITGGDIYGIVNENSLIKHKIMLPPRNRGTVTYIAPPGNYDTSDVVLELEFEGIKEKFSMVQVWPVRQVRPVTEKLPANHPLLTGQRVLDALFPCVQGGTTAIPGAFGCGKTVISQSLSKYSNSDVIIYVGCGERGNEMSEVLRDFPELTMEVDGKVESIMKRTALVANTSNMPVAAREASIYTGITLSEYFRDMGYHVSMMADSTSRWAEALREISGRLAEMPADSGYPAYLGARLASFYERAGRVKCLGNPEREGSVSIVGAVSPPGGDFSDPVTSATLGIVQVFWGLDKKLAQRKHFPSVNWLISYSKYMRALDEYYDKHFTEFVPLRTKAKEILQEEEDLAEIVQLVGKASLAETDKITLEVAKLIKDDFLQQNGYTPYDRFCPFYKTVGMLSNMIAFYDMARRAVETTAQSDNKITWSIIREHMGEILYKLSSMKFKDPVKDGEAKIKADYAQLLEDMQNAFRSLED
Chain of V-ATPase (Homo sapiens, UniProt P38606) (P38606 whole entry): as the sequence (P31404 whole entry, looked up) above, with R10L, V131I, N157S, I199V, S204T, E576D, V590L, A599S counted along it

C=C(OP(=O)(O)O)C(=O)O [PEP, phosphoenolpyruvic acid]
quenching of oxonol-V fluorescence (transmembrane potential) (V-ATPase [1]; addition of 5 mM PEP, ATP alone quenched by 40%, N = 2): did not change the level of quenching | quenching of acridine orange fluorescence (proton transport) (V-ATPase [1]; addition of 5 mM PEP, ATP alone quenched by 62%, N = 2): did not change the level of quenching | inhibition of V-ATPase (V-ATPase [1]; concentrations of up to 5 mM, data not shown): did not inhibit

O=P(O)(O)C(Cl)(Cl)P(=O)(O)O [clodronate]
α-SMA-positive reaction in liver, increase by TAA ([2]; clodronate 30 mg/kg in the drinking water, immunostaining): markedly suppressed | α-SMA-positive area fraction ([2]; clodronate 30 mg/kg in the drinking water, normal control 0.14 ± 0.01, TAA group 2.79 ± 0.33, four measurements per group): 0.71 ± 0.10

C[C@H]1N=C(N(C)C)N=C(N)N1 [imeglimin]
inhibitory effect on V-ATPase (V-ATPase [3]): neither imeglimin nor metformin exhibited a strong inhibitory effect | α-SMA in liver sections (immunostaining and fluorescence microscopy) ([2]; imeglimin 200 mg/kg orally): effect similar to that of clodronate | α-SMA-positive reaction by Western blotting of liver tissue, increase due to TAA ([2]; imeglimin 200 mg/kg orally): markedly suppressed | fibrosis score, increase by TAA [2, 5]: suppressed | liver histology (HE staining) [2, 5]: reduced destruction of the lobular structure, hepatocyte ballooning, and inflammatory cell infiltration | positive reaction of F4/80-positive macrophages, increase by TAA [2, 5]: strongly suppressed | α-SMA-positive reaction (activation of hepatic stellate cells), increase by TAA [2, 5]: strongly suppressed | PSR staining-positive area (collagen fibers) ([2]; imeglimin 200 mg/kg orally three times per week for 8 weeks, versus TAA group): significantly reduced | blood imeglimin concentration [4]: 9 µM
